Assay: recombinant UMI read abundance after kanamycin selection (control-corrected) (log10(CPM+1)); higher = more efficient recombination; extreme values may be limits of the assay; sequences stand for … in AGTGCAGAGAAAATCGGCCAGTTTTCTCTGCCTGCAGTCCGCATGCCGTGGGACCCCTTGGGTTCTAACCTGTTGCCTAGATTTATGCAGCGGACTGCCTTTCTCCCAAAGTGATAAACCGG…AGGTTGGTTTCACT; site = the 11-nt donor
Method in brief: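 Two replicates each of selected and unselected plating were used in this pooled Escherichia coli screen of donor and donor-binding-loop pairs for the IS621 bridge recombinase. Selection was with IPTG (0.07 mM) and kanamycin. Counts of recombinant UMIs, amplified across the donor–target junction, were converted to CPM, averaged, scaled by control-derived factors and reported as log10(CPM+1).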
For “TATGCACCATGGACCGGTTTTCCCGGTAATCCGTATTTGGT (site TATGCACCTAC)”, the “recombinant UMI read abundance (log10)” value was 0.0323. With “TATGTGTCATGGACCGGTTTTCCCGGTAATCCGTATTTGAC (site AATGTGTCTGT)” the “recombinant UMI read abundance (log10)” value was 0. With “TATGTGTCATGGACCGGTTTTCCCGGTAATCCGTATTTGAC (site CATGTGTCTGT)” the “recombinant UMI read abundance (log10)” value was 0. For “TATGTGTCATGGACCGGTTTTCCCGGTAATCCGTATTTGAC (site GATGTGTCTGT)”, the “recombinant UMI read abundance (log10)” value was 0. For “TATGTGTCATGGACCGGTTTTCCCGGTAATCCGTATTTGAC (site TATGTGTCTGT)”, the “recombinant UMI read abundance (log10)” value was 0.884. For “TATTACACATGGACCGGTTTTCCCGGTAATCCGTATTTGCC (site TATTACACTGG)”, the “recombinant UMI read abundance (log10)” value was 2.37. In the case of “TATTAGACATGGACCGGTTTTCCCGGTAATCCGTATTTGCG (site TATTAGACTCG)”, the “recombinant UMI read abundance (log10)” value is reported as 1.03. In the case of “TATTGGGCATGGACCGGTTTTCCCGGTAATCCGTATTTGTG (site TATTAGGCTCA)”, the “recombinant UMI read abundance (log10)” value is reported as 0.0242. With “TATTGGGCATGGACCGGTTTTCCCGGTAATCCGTATTTGTG (site TATTCGGCTCA)” the “recombinant UMI read abundance (log10)” value was 0.00589. In the case of “TATTGGGCATGGACCGGTTTTCCCGGTAATCCGTATTTGTG (site TATTGGGCTCA)”, the “recombinant UMI read abundance (log10)” value is reported as 0.226. For “TATTGGGCATGGACCGGTTTTCCCGGTAATCCGTATTTGTG (site TATTTGGCTCA)”, the “recombinant UMI read abundance (log10)” value was 0.0234. In the case of “TATTGTGCATGGACCGGTTTTCCCGGTAATCCGTATTTGGT (site TATTGTGCTAC)”, the “recombinant UMI read abundance (log10)” value is reported as 0.401. With “TATTTGTCATGGACCGGTTTTCCCGGTAATCCGTATTTGTG (site TATTTGACTCA)” the “recombinant UMI read abundance (log10)” value was 0.0169. For “TATTTGTCATGGACCGGTTTTCCCGGTAATCCGTATTTGTG (site TATTTGCCTCA)”, the “recombinant UMI read abundance (log10)” value was 0.0214. In the case of “TATTTGTCATGGACCGGTTTTCCCGGTAATCCGTATTTGTG (site TATTTGGCTCA)”, the “recombinant UMI read abundance (log10)” value is reported as 0.0347. With “TATTTGTCATGGACCGGTTTTCCCGGTAATCCGTATTTGTG (site TATTTGTCTCA)” the “recombinant UMI read abundance (log10)” value was 0.515. With “TATTTTGCATGGACCGGTTTTCCCGGTAATCCGTATTTGTG (site TATTTAGCTCA)” the “recombinant UMI read abundance (log10)” value was 0.00468. With “TATTTTGCATGGACCGGTTTTCCCGGTAATCCGTATTTGTG (site TATTTCGCTCA)” the “recombinant UMI read abundance (log10)” value was 0.0112. In the case of “TATTTTGCATGGACCGGTTTTCCCGGTAATCCGTATTTGTG (site TATTTGGCTCA)”, the “recombinant UMI read abundance (log10)” value is reported as 0. With “TATTTTGCATGGACCGGTTTTCCCGGTAATCCGTATTTGTG (site TATTTTGCTCA)” the “recombinant UMI read abundance (log10)” value was 0.00898. For “TCAATTTCATGGACCGGTTTTCCCGGTAATCCGTATTTGGC (site TCAATTTCTGC)”, the “recombinant UMI read abundance (log10)” value was 0. For “TCACACTCATGGACCGGTTTTCCCGGTAATCCGTATTTGAT (site TCACACTCTAT)”, the “recombinant UMI read abundance (log10)” value was 2.38. For “TCACAGCCATGGACCGGTTTTCCCGGTAATCCGTATTTGCA (site TCACAGCCTTG)”, the “recombinant UMI read abundance (log10)” value was 0.816. In the case of “TCACCTGCATGGACCGGTTTTCCCGGTAATCCGTATTTGCG (site TCACCTGCTCG)”, the “recombinant UMI read abundance (log10)” value is reported as 0.016. For “TCACCTGCATGGACCGGTTTTCCCGGTAATCCGTATTTGTT (site TCACCTGCTAA)”, the “recombinant UMI read abundance (log10)” value was 0.063. For “TCACGCACATGGACCGGTTTTCCCGGTAATCCGTATTTGCT (site TCACGCACTAG)”, the “recombinant UMI read abundance (log10)” value was 1.97. For “TCACGTACATGGACCGGTTTTCCCGGTAATCCGTATTTGAT (site TCACGTACTAT)”, the “recombinant UMI read abundance (log10)” value was 0.589. In the case of “TCACGTCCATGGACCGGTTTTCCCGGTAATCCGTATTTGGC (site TCACGTCCTGC)”, the “recombinant UMI read abundance (log10)” value is reported as 0. In the case of “TCAGACTCATGGACCGGTTTTCCCGGTAATCCGTATTTGCA (site TCAAACTCTTG)”, the “recombinant UMI read abundance (log10)” value is reported as 0.771. In the case of “TCAGACTCATGGACCGGTTTTCCCGGTAATCCGTATTTGCA (site TCACACTCTTG)”, the “recombinant UMI read abundance (log10)” value is reported as 1.19. With “TCAGACTCATGGACCGGTTTTCCCGGTAATCCGTATTTGCA (site TCAGACTCTTG)” the “recombinant UMI read abundance (log10)” value was 2.95. In the case of “TCAGACTCATGGACCGGTTTTCCCGGTAATCCGTATTTGCA (site TCATACTCTTG)”, the “recombinant UMI read abundance (log10)” value is reported as 0.807. For “TCAGATACATGGACCGGTTTTCCCGGTAATCCGTATTTGGC (site TCAGATACTGC)”, the “recombinant UMI read abundance (log10)” value was 0. In the case of “TCAGCATCATGGACCGGTTTTCCCGGTAATCCGTATTTGCA (site ACAGTATCTTG)”, the “recombinant UMI read abundance (log10)” value is reported as 0.8. For “TCAGCATCATGGACCGGTTTTCCCGGTAATCCGTATTTGCA (site TCAGCATCTTG)”, the “recombinant UMI read abundance (log10)” value was 0.224. For “TCAGCCTCATGGACCGGTTTTCCCGGTAATCCGTATTTGAT (site TCAGCCTCTAT)”, the “recombinant UMI read abundance (log10)” value was 1.36. In the case of “TCAGCGACATGGACCGGTTTTCCCGGTAATCCGTATTTGCG (site TCAGAGACTCG)”, the “recombinant UMI read abundance (log10)” value is reported as 0.00361. With “TCAGCGACATGGACCGGTTTTCCCGGTAATCCGTATTTGCG (site TCAGCGACTCG)” the “recombinant UMI read abundance (log10)” value was 1.37. In the case of “TCAGCGACATGGACCGGTTTTCCCGGTAATCCGTATTTGCG (site TCAGGGACTCG)”, the “recombinant UMI read abundance (log10)” value is reported as 0.0187. For “TCAGCGACATGGACCGGTTTTCCCGGTAATCCGTATTTGCG (site TCAGTGACTCG)”, the “recombinant UMI read abundance (log10)” value was 0.00864. For “TCAGCTGCATGGACCGGTTTTCCCGGTAATCCGTATTTGTG (site TAAGCTGCTCA)”, the “recombinant UMI read abundance (log10)” value was 0.0147. For “TCAGCTGCATGGACCGGTTTTCCCGGTAATCCGTATTTGTG (site TCAGCTGCTCA)”, the “recombinant UMI read abundance (log10)” value was 0.637. With “TCAGCTGCATGGACCGGTTTTCCCGGTAATCCGTATTTGTG (site TGAGCTGCTCA)” the “recombinant UMI read abundance (log10)” value was 0.00568. In the case of “TCAGCTGCATGGACCGGTTTTCCCGGTAATCCGTATTTGTG (site TTAGCTGCTCA)”, the “recombinant UMI read abundance (log10)” value is reported as 0.0047. In the case of “TCAGGCACATGGACCGGTTTTCCCGGTAATCCGTATTTGGC (site TCAGGCACTGC)”, the “recombinant UMI read abundance (log10)” value is reported as 0.89. With “TCAGGGACATGGACCGGTTTTCCCGGTAATCCGTATTTGCG (site TCAGAGACTCG)” the “recombinant UMI read abundance (log10)” value was 0.74. With “TCAGGGACATGGACCGGTTTTCCCGGTAATCCGTATTTGCG (site TCAGCGACTCG)” the “recombinant UMI read abundance (log10)” value was 0.0114. In the case of “TCAGGGACATGGACCGGTTTTCCCGGTAATCCGTATTTGCG (site TCAGGGACTCG)”, the “recombinant UMI read abundance (log10)” value is reported as 1.03. For “TCAGGGACATGGACCGGTTTTCCCGGTAATCCGTATTTGCG (site TCAGTGACTCG)”, the “recombinant UMI read abundance (log10)” value was 0.0229. For “TCAGTAACATGGACCGGTTTTCCCGGTAATCCGTATTTGTA (site TCAGTAACTTA)”, the “recombinant UMI read abundance (log10)” value was 1.71. With “TCAGTAGCATGGACCGGTTTTCCCGGTAATCCGTATTTGGC (site TCAGTAGCTGC)” the “recombinant UMI read abundance (log10)” value was 1.54. In the case of “TCAGTTCCATGGACCGGTTTTCCCGGTAATCCGTATTTGAA (site TCAGTTCCTTT)”, the “recombinant UMI read abundance (log10)” value is reported as 0.398. For “TCAGTTTCATGGACCGGTTTTCCCGGTAATCCGTATTTGCA (site ACAGTATCTTG)”, the “recombinant UMI read abundance (log10)” value was 0.0288. For “TCAGTTTCATGGACCGGTTTTCCCGGTAATCCGTATTTGCA (site TCAGTTTCTTG)”, the “recombinant UMI read abundance (log10)” value was 1.14. In the case of “TCATACACATGGACCGGTTTTCCCGGTAATCCGTATTTGCA (site TCATACACTTG)”, the “recombinant UMI read abundance (log10)” value is reported as 2.45. With “TCATACACATGGACCGGTTTTCCCGGTAATCCGTATTTGCA (site TCATACCCTTG)” the “recombinant UMI read abundance (log10)” value was 0.302. With “TCATACACATGGACCGGTTTTCCCGGTAATCCGTATTTGCA (site TCATACGCTTG)” the “recombinant UMI read abundance (log10)” value was 1.36. With “TCATACACATGGACCGGTTTTCCCGGTAATCCGTATTTGCA (site TCATACTCTTG)” the “recombinant UMI read abundance (log10)” value was 1.5. For “TCATACCCATGGACCGGTTTTCCCGGTAATCCGTATTTGTG (site TCATACCCTCA)”, the “recombinant UMI read abundance (log10)” value was 0. With “TCATACTCATGGACCGGTTTTCCCGGTAATCCGTATTTGGA (site TCATACTCTTA)” the “recombinant UMI read abundance (log10)” value was 0.26. With “TCATACTCATGGACCGGTTTTCCCGGTAATCCGTATTTGGA (site TCATACTCTTC)” the “recombinant UMI read abundance (log10)” value was 1.76. For “TCATACTCATGGACCGGTTTTCCCGGTAATCCGTATTTGGA (site TCATACTCTTG)”, the “recombinant UMI read abundance (log10)” value was 0. For “TCATACTCATGGACCGGTTTTCCCGGTAATCCGTATTTGGA (site TCATACTCTTT)”, the “recombinant UMI read abundance (log10)” value was 1.17. With “TCATACTCATGGACCGGTTTTCCCGGTAATCCGTATTTGTA (site TCATACTCTTA)” the “recombinant UMI read abundance (log10)” value was 1.51. For “TCATACTCATGGACCGGTTTTCCCGGTAATCCGTATTTGTA (site TCATACTCTTC)”, the “recombinant UMI read abundance (log10)” value was 0.00471. With “TCATACTCATGGACCGGTTTTCCCGGTAATCCGTATTTGTA (site TCATACTCTTG)” the “recombinant UMI read abundance (log10)” value was 0. With “TCATACTCATGGACCGGTTTTCCCGGTAATCCGTATTTGTA (site TCATACTCTTT)” the “recombinant UMI read abundance (log10)” value was 0.299. For “TCATAGACATGGACCGGTTTTCCCGGTAATCCGTATTTGAC (site TCATAGACTGT)”, the “recombinant UMI read abundance (log10)” value was 0.421. With “TCATAGGCATGGACCGGTTTTCCCGGTAATCCGTATTTGTT (site TCATAGGCTAA)” the “recombinant UMI read abundance (log10)” value was 1.27. With “TCATAGTCATGGACCGGTTTTCCCGGTAATCCGTATTTGCA (site TCATAATCTTG)” the “recombinant UMI read abundance (log10)” value was 2.41. In the case of “TCATAGTCATGGACCGGTTTTCCCGGTAATCCGTATTTGCA (site TCATACTCTTG)”, the “recombinant UMI read abundance (log10)” value is reported as 0.653. For “TCATAGTCATGGACCGGTTTTCCCGGTAATCCGTATTTGCA (site TCATAGTCTTG)”, the “recombinant UMI read abundance (log10)” value was 2.25. For “TCATAGTCATGGACCGGTTTTCCCGGTAATCCGTATTTGCA (site TCATATTCTTG)”, the “recombinant UMI read abundance (log10)” value was 0. With “TCATCCTCATGGACCGGTTTTCCCGGTAATCCGTATTTGAA (site TCATCCTCTTT)” the “recombinant UMI read abundance (log10)” value was 1.05. With “TCATCGTCATGGACCGGTTTTCCCGGTAATCCGTATTTGAA (site TCATCGTCTTT)” the “recombinant UMI read abundance (log10)” value was 0.467.

From the supplement of paper PMC11208160
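Also: IS621 bridge recombinase in Escherichia coli cells against a fixed T5 target plasmid.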
